Type in all cases: functional, cell-based
For experiment [1], the system named is HeLa. Put plainly: Cytotoxicity against human HeLa cells assessed as reduction in cell viability after 72 hrs by WST8 assay. (Tetrazolium dyes change colour on reduction, which living cells bring about.)
The subject of experiment [2] is HeLa. Put plainly: Induction of apoptosis in human HeLa cells assessed as loss of cytoplasmic and nuclear integrity at 25 uM after 72 hrs by acridine orange/Hoechst 33342 staining based microscopic method.
For experiment [3], the system named is HeLa. Nature of the experiment: Induction of apoptosis in human HeLa cells assessed as nuclear fragmentation at 25 uM after 72 hrs by acridine orange/Hoechst 33342 staining based microscopic method.

Each structure is given as a SMILES string. Calls of active or inactive are those of the source. The rule behind the calls is not given here.

Broadly, the IC50 is the concentration needed to halve the response being measured. Consider `COC(=O)/C=C/c1cc(OC)c2c(c1)[C@H](CO)[C@@H](c1ccc(O)c(OC)c1)O2`, for which, in experiment [1], the IC50 came out at 90 µM. On the same count and under the same terms, under `O=c1[nH]cc(F)c(=O)[nH]1` [FLUOROURACIL] stands 13.9 µM. On to `COC(=O)/C=C/c1cc(OC)c2c(c1)[C@@H](CO)[C@H](c1ccc(O)c(OC)c1)O2`, for which the IC50 in experiment [1] is 21 µM. In addition, the outcome in experiment [2] and in experiment [3] was Active.

Regarding `COC(=O)/C=C/c1cc(OC)c2c(c1)[C@@H](CO)[C@@H](c1ccc(O)c(OC)c1)O2`, in experiment [1], the IC50 turned out to be 105 µM. The same measure, in the same setting: in the case of `COC(=O)/C=C\c1cc(OC)c2c(c1)[C@@H](CO)[C@H](c1ccc(O)c(OC)c1)O2` it was 87.3 µM; in that of `COC(=O)/C=C\c1cc(OC)c2c(c1)[C@H](CO)[C@H](c1ccc(O)c(OC)c1)O2`, 103 µM. Still for that read-out and setting: in the case of `COC(=O)/C=C\c1cc(OC)c2c(c1)[C@@H](CO)[C@@H](c1ccc(O)c(OC)c1)O2` it was 32.5 µM; in that of `COC(=O)/C=C/c1cc(OC)c2c(c1)[C@H](CO)[C@H](c1ccc(O)c(OC)c1)O2`, 96.1 µM. The same measure, in the same setting: under `COC(=O)/C=C\c1cc(OC)c2c(c1)[C@H](CO)[C@@H](c1ccc(O)c(OC)c1)O2` stands 78.8 µM.

For the origin of these results see ChEMBL document CHEMBL4118050, “Gardenifolins A-H, Scalemic Neolignans from Gardenia ternifolia: Chiral Resolution, Configurational Assignment, and Cytotoxic Activities against the HeLa Cancer Cell Line” (J Nat Prod, 2017).
